Assay results from article PMC7824081, “Inhibition of DOT1L by Half-Selenopsammaplin A Analogs Suppresses Tumor Growth and EMT-Mediated Metastasis in Triple-Negative Breast Cancer” (Pharmaceuticals, 2020).

Experiments:
[1] = test system: MDA-MB-231 TNBC cells; test: SRB cell proliferation assay, MDA-MB-231; format: cell-based, human; settings: for IC50: 72 h, SRB assay; for Therapeutic Index: ratio of IC50 values between MCF10A and MDA-MB-231 cells
Description: (§1) Human breast epithelial cell line (MCF10A) and human TNBC cell lines (MDA-MB-468, MDA-MB-231, Hs578T, and HCC38 cells) were provided by the American Type Culture Collection (Manassas, VA, USA). MCF10A cells were cultured in Dulbecco’s Modified Eagle’s Medium/Nutrient Mixture F-12 containing 5% donor horse serum, 100 ng/mL cholera toxin, 10 µg/mL human insulin, 20 ng/mL epidermal growth factor, 0.5 µg/mL hydrocortisone, and penicillin-streptomycin (sodium penicillin G: 100 units/mL; streptomycin: 100 μg/mL). The TNBC cells were cultured in medium [Dulbecco’s Modified Eagle’s Medium for MDA-MB-468, MDA-MB-231, and Hs578T cells; Roswell Park Memorial Institute 1640 medium for HCC38 cells] supplemented with penicillin-streptomycin and 10% fetal bovine serum at 37 °C in a humidified incubator with 5% carbon dioxide. MCF10A cells were cultured in DMEM/F12 containing 5% donor horse serum, 100 ng/mL cholera toxin, 10 µg/mL human insulin, 20 ng/mL epidermal growth factor, 0.5 µg/mL hydrocortisone and penicillin-streptomycin. All reagents used for cell culture, including culture medium, fetal bovine serum, trypsin-EDTA solution (1×), and penicillin-streptomycin solution (100×), were purchased from Gibco (Grand Island, NE, USA). Laemmli sample buffer (2×) and 2-mercaptoethanol were purchased from Bio-Rad Laboratories, Inc. (Hercules, CA, USA). EPZ-5676 was purchased from Cayman Chemical (Ann Arbor, MI, USA). Dimethyl sulfoxide (DMSO), bicinchoninic acid, copper (II) sulfate solution, bovine serum albumin (BSA), trichloroacetic acid, sulforhodamine B (SRB), and paclitaxel were purchased from Sigma–Aldrich (St. Louis, MO, USA).
(§2) Cell proliferation was evaluated using the SRB assay. Briefly, cells were seeded in 96-well plates and incubated for 30 min (for 0-day controls) or treated with test compounds for the times indicated. After incubation, the cells were fixed, dried, and stained with 0.4% (w/v) SRB in 1% (v/v) acetic acid solution. Unbound dye was removed by washing, and stained cells were dissolved in 10 mM Tris (pH 10.0). Cell proliferation was then determined by measuring the absorbance at 515 nm.

[2] = target: T1, DOT1L (Homo sapiens, UniProt Q8TEK3); test: DOT1L enzyme activity assay (cell-free); format: biochemical; settings: 500 nM, 2 h, DOT1L 500 ng/well
T1 construct: purchased BPS Bioscience 52202
T1 sequence (Q8TEK3 whole entry): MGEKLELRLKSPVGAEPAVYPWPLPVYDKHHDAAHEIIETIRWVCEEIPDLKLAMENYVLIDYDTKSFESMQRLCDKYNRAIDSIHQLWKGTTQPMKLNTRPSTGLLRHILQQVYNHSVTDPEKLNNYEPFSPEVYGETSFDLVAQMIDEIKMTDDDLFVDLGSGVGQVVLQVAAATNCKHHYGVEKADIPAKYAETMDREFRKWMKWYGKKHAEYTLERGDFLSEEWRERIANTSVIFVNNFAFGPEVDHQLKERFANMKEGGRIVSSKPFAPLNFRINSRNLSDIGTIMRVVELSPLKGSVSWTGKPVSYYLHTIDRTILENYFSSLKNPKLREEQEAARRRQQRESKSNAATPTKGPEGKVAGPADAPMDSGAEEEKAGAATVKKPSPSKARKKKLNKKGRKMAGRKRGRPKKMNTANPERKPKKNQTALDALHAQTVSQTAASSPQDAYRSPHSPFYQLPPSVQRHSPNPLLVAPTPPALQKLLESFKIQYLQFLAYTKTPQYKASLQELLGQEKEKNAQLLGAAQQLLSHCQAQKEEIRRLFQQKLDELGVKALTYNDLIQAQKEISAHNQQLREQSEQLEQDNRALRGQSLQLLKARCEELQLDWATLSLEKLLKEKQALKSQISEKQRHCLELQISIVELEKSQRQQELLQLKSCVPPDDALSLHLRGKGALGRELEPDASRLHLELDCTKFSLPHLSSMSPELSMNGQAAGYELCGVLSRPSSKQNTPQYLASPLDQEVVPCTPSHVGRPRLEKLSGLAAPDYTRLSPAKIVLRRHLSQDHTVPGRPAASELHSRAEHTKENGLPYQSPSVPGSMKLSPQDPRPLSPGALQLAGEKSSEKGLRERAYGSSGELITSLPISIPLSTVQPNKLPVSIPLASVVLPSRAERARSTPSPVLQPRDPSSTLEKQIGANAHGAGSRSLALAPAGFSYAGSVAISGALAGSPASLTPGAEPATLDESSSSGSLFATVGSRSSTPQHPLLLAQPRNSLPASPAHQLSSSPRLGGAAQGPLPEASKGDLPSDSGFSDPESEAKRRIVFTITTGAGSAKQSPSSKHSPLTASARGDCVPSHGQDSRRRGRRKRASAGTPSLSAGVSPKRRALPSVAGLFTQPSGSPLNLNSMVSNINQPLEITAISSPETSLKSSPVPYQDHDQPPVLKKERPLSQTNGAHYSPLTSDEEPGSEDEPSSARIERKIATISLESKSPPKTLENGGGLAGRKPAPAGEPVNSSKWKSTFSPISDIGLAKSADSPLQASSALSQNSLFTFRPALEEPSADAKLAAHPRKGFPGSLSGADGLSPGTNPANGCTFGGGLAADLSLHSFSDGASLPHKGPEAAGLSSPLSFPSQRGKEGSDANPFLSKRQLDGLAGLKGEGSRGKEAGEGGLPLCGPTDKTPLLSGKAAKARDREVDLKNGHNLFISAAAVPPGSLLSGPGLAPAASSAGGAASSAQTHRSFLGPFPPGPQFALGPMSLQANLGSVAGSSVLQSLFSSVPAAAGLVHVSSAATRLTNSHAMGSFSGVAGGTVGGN
Description: DOT1L enzyme activity was measured using 5 μM S-adenosyl methionine (SAM) as the methyl group donor, synthesized DOT1L substrate as the substrate, and 25 ng/μL DOT1L enzymes from BPS Bioscience (Cat. No. 52202; San Diego, CA, USA) according to the manufacturer’s instructions.

[3] = test system: MCF10A normal breast epithelial cells; test: SRB cell proliferation assay, MCF10A; format: cell-based, human; settings: 72 h
Description: as §1, §2

[4] = test system: MDA-MB-231/Luc cells-implanted orthotopic mouse model; test: MDA-MB-231/Luc-implanted orthotopic mouse tumor model; format: in vivo; settings: 30 mg/kg i.p., three times per week for 38 days
Description: All animal experiments were conducted following the guidelines approved by the Seoul National University Institutional Animal Care and Use Committee (IACUC; permission number: SNU-180430-4-1). Female nude mice (BALB/c-nu), 4 weeks old, were purchased from Central Laboratory Animal, Inc. (Seoul, Korea) and housed under pathogen-free conditions with a 12 h light-dark schedule. Luciferase expressing MDA-MB-231 cells were inoculated orthotopically into the fourth fat pad of mice (1 × 10^7 cells in 100 μL of 50:50 PBS/Matrigel) using a 29-gauge needle. Two weeks after implantation, mice were randomized into vehicle control and treatment groups of six animals per group and were administered with vehicle (EtOH/Cremophor/Normal saline = 5:5:90), 9l (10 or 30 mg/kg body weight), EPZ-5676 (30 mg/kg body weight), or paclitaxel (5 mg/kg body weight, Sigma-Aldrich) as a positive reference control. Compounds were administered intraperitoneally three times per week for 38 days. An additional week later, anesthetized mice were positioned in IVIS (PerkinElmer, Waltham, MA, USA) and were imaged 15 min after injection of 150 mg/kg D-luciferin (Gold Biotechnology, St. Louis, MO, USA) resuspended in DPBS (w/o calcium or magnesium). Mice were euthanized and primary tumors and lungs were excised, weighed, and frozen for further biochemical analysis. The length (L), width (W), and height (H) of the tumors were also measured using a digital slide caliper (Mitutoyo, Kawasaki, Japan) once a week, and tumor volumes (mm^3) were estimated by the formula LWH/2. Toxicity was evaluated based on body weight loss.
A portion of the frozen tumors excised from nude mice on the termination day of the experiment was homogenized using a hand-held homogenizer in complete lysis buffer (Active Motif, Carlsbad, CA, USA). Aliquots were stored at −80 °C, and the levels of protein expression in the tumor lysates were determined. The protein concentrations in the tumor lysates were measured using the Bradford assay.

[5] = Molecular stability in dichloromethane (TLC analysis); format: physicochemical; settings: room temperature, 48 h
Description: Figure S1. Thin layer chromatography analysis
Se-S bond analog (Figure 2, compound 9) was dissolved in dichloromethane at room
temperature. After 48 h, thin layer chromatography (TLC) analysis of the compound
9 was performed. (P : Compound 9, C : Co-spot, S : Diphenyl disulfide, SPA :
Compound 5b, eluent: [Hexane:EtOAc = 1:1] ).
(1 picture or pasted object on this page, not shown here)

| SMILES | IC50 ([1]; Homo sapiens, MDA-MB-231) [nM] | Therapeutic Index [1] | IC50 ([3]; Homo sapiens, MCF-10A) [nM] | further results |
| --- | --- | --- | --- | --- |
| O=C(NCC[Se]Sc1ccccc1)/C(Cc1ccc(O)c(Br)c1)=N/O [9a, (E)-3-(3-Bromo-4-hydroxyphenyl)-2-(hydroxyimino)-N-(2-((phenylthio)selanyl)ethyl)propanamide] | 210 | 82.10 | 17200 | Inhibition of DOT1L enzyme activity [2]: significant inhibitory effects |
| O=C(NCC[Se]Sc1ccccc1)/C(Cc1ccccc1)=N/O [9b, (E)-2-(Hydroxyimino)-3-phenyl-N-(2-((phenylthio)selanyl)ethyl)propanamide] | 250 | 86.08 | 21500 | Inhibition of DOT1L enzyme activity [2]: significant inhibitory effects |
| O=C(NCC[Se]Sc1ccccc1)/C(Cc1ccc2ccccc2c1)=N/O [9c, (E)-2-(Hydroxyimino)-3-(naphthalen-2-yl)-N-(2-((phenylthio)selanyl)ethyl)propanamide] | 460 | 61.30 | 28200 |  |
| O=C(NCC[Se]Sc1ccccc1)/C(Cc1ccc(F)cc1)=N/O [9d, (E)-3-(4-Fluorophenyl)-2-(hydroxyimino)-N-(2-((phenylthio)selanyl)ethyl)propanamide] | 390 | 66.77 | 26000 |  |
| O=C(NCC[Se]Sc1ccccc1)/C(Cc1ccc(F)c(F)c1)=N/O [9e, (E)-3-(3,4-Difluorophenyl)-2-(hydroxyimino)-N-(2-((phenylthio)selanyl)ethyl)propanamide] | 430 | 54.23 | 23300 |  |
| O=C(NCC[Se]Sc1ccccc1)/C(Cc1ccc(Cl)cc1)=N/O [9f, (E)-3-(4-Chlorophenyl)-2-(hydroxyimino)-N-(2-((phenylthio)selanyl)ethyl)propanamide] | 470 | 57.60 | 27100 |  |
| O=C(NCC[Se]Sc1ccccc1)/C(Cc1ccc(Cl)c(Cl)c1)=N/O [9g, (E)-3-(3,4-Dichlorophenyl)-2-(hydroxyimino)-N-(2-((phenylthio)selanyl)ethyl)propanamide] | 330 | 68.67 | 22700 |  |
| O=C(NCC[Se]Sc1ccccc1)/C(Cc1ccc(Br)cc1)=N/O [9h, (E)-3-(4-Bromophenyl)-2-(hydroxyimino)-N-(2-((phenylthio)selanyl)ethyl)propanamide] | 400 | 72.85 | 29100 |  |
| CCOc1ccc(C/C(=N\O)C(=O)NCC[Se]Sc2ccccc2)cc1 [9i, (E)-3-(4-Ethoxyphenyl)-2-(hydroxyimino)-N-(2-((phenylthio)selanyl)ethyl)propanamide] | 170 | 123.65 | 21000 |  |
| O=C(NCC[Se]Sc1ccccc1)/C(Cc1ccc(OCc2ccccc2)cc1)=N/O [9j, (E)-3-(4-(Benzyloxy)phenyl)-2-(hydroxyimino)-N-(2-((phenylthio)selanyl)ethyl)propanamide] | 180 | 108.22 | 19500 |  |
| O=C(NCC[Se]Sc1ccccc1)/C(Cc1ccc([N+](=O)[O-])cc1)=N/O [9k, (E)-2-(Hydroxyimino)-3-(4-nitrophenyl)-N-(2-((phenylthio)selanyl)ethyl)propanamide] | 190 | 95.53 | 18200 |  |
| O=C(NCC[Se]Sc1ccccc1)/C(Cc1ccc(O)c(Cl)c1)=N/O [9m, (E)-3-(3-Chloro-4-hydroxyphenyl)-2-(hydroxyimino)-N-(2-((phenylthio)selanyl)ethyl)propanamide] | 250 | 68.08 | 17000 |  |
| O=C(NCC[Se]Sc1ccccc1)/C(Cc1ccc(O)c(F)c1)=N/O [9n, (E)-3-(3-Fluoro-4-hydroxyphenyl)-2-(hydroxyimino)-N-(2-((phenylthio)selanyl)ethyl)propanamide] | 230 | 80.48 | 18500 |  |
| CC(C)N(C[C@H]1O[C@@H](n2cnc3c(N)ncnc32)[C@H](O)[C@@H]1O)[C@H]1C[C@@H](CCc2nc3cc(C(C)(C)C)ccc3[nH]2)C1 [EPZ-5676, reference compound] | > 50000 |  | > 50000 | inhibition of proliferation of TNBC cells ([1]; at 50 μM): not able to inhibit the proliferation; effect on tumor growth [4]: did not affect tumor growth |
| CC(=O)O[C@H]1C(=O)[C@@]2(C)[C@H]([C@H](OC(=O)c3ccccc3)[C@]3(O)C[C@H](OC(=O)[C@H](O)[C@@H](NC(=O)c4ccccc4)c4ccccc4)C(C)=C1C3(C)C)[C@]1(OC(C)=O)CO[C@@H]1C[C@@H]2O [Paclitaxel, reference compound] | 10 | 19.80 | 198 |  |
| CC(C)(C)c1ccc(CC(=NO)C(=O)NCCSSc2ccccc2)cc1 [PsA-3091, reference compound] |  | 68.99 |  | IC50 [1]: 1980 nM; IC50 [3]: 137000 nM |
| O=C(NCCSSCCNC(=O)/C(Cc1ccc(O)c(Br)c1)=N/O)/C(Cc1ccc(O)c(Br)c1)=N/O [Psammaplin A (PsA), Psammaplin A] | 2820 | 11.60 | 32700 | Inhibition of DOT1L enzyme activity [2]: negligible DOT1L inhibition |
| O=C(NCC[Se]Sc1ccccc1)/C(Cc1ccccc1)=N/O [compound 9] |  |  |  | molecular stability [5]: stable |
